Reference: US20130317045A1, “THIENOPYRIDINE AND THIENOPYRIMIDINE COMPOUNDS AND METHODS OF USE THEREOF” (AMBIT BIOSCIENCES CORPORATION, priority 2010, published 2013)

Tests used:
[1] = tested on: distinct kinases tested excluding mutant variants, typically 359 or 386 kinases; experiment: Kinase selectivity score from competition binding panel; conditions: compound at 10 μM; fraction of kinases with inhibition of 90% or greater
Description: (§1) Competition binding assays used herein were developed, validated and performed as described in Fabian et al., Nature Biotechnology 2005, 23,329-336. Kinases were produced as fusions to T7 phage (See, Fabian et al. or WO04/015142) or alternatively, the kinases were expressed in HEK-293 cells and subsequently tagged with DNA for PCR detection (See, WO08/005310). For the binding assays, streptavidin-coated magnetic beads were treated with biotinylated affinity ligands for 30 min at rt to generate affinity resins. The liganded beads were blocked with excess biotin and washed with blocking buffer (SeaBlock (Pierce), 1% BSA, 0.05% Tween 20, 1 mM DTT) to remove unbound ligand and to reduce non-specific binding. Binding reactions were assembled by combining kinase, liganded affinity beads, and test compounds in 1× binding buffer (20% SeaBlock, 0.17×PBS, 0.05% Tween 20, 6 mM DTT). Test compounds were prepared as 100× stocks in DMSO and rapidly diluted into the aqueous environment. DMSO was added to control assays lacking a test compound. Primary screen interactions were performed in polypropylene 384-well plates in a final volume of 34 μL, while Kd determinations were performed in polystyrene 96-well plates in a final volume of 135 μL. The assay plates were incubated at room temperature with shaking for 1 hour, long enough for binding reactions to reach equilibrium, and the affinity beads were washed extensively with wash buffer (1× PBS, 0.05% Tween 20) to remove unbound protein. The beads were then resuspended in elution buffer (1× PBS, 0.05% Tween 20, 2 μM non-biotinylated affinity ligand) and incubated at room temperature with shaking for 30 min. The kinase concentration in the eluates was measured by quantitative PCR. Each kinase was tested individually against each compound. Kds were determined using eleven serial threefold dilutions. A selectivity score, which is a quantitative measure of selectivity of a compound against a panel of enzymes, may be calculated for a compound by dividing the number of enzymes for which a compound meets a set criteria, (for example, a binding constant of 100 nM or less), by the total number of enzymes tested.

[2] = tested on: GM-CSFR/JAK2/STAT5 pathway in CSTF-1 cells; experiment: CSTF-1 cell-based reporter assay (beta-lactamase, GM-CSF stimulated); set-up: species or system human; conditions: Homo sapiens; GM-CSF at 2 ng/mL, 4 hours; read-out: Cell Assay: CS TF-1 reporter assay IC50
Description: CSTF-1 Cell-Based Reporter Assay
CSTF-1 cells are derived from the human erythroleukemia cell line that is growth dependent on GM-CSF and has an intact GM-CSFR/JAK2/STAT5 pathway. The cell line contains stably integrated beta-lactamase reporter gene under the control of the […] (irf 1) response element recognized by the activated transcription factor STATS. csTF-1 cells (Invitrogen K1219) were washed with assay media (97% OPTIMEM/ 0.5% dialyzed FBS/0.1 mM NEAA/1 mM Na pyr/P/S) and seeded in the same media at 5×10^5 cell/mL in T150 flask. After 16 hour incubation, cells were seeded at 2×10^5 cell/well in 50 μl volume, into Costar, clear bottom, 96-well assay plates. Serial dilutions of compounds were added to the plates with final DMSO concentration at 0.5% and GM-CSF at 2 ng/mL and the plates were then incubated at […] and 5% CO2 for 4 hours. The plates were brought to room temperature before adding Substrate Mixture according to manufacturer's protocol (Invitrogen, Catalog #K1085). The assay plates containing the substrate mixture were incubated in the dark at room temperature for 2 hours. Blue and green fluorescence was measured with excitation at 409 nm and emission at 460 nm (for blue) and excitation at 409 nm and emission at 530 nm (for green) using Spectra Max Gemini EM.

JAK2 = molecular target: T1, JAK2 (Homo sapiens, UniProt O60674); experiment: Competition binding assay, JAK2
T1 construct: made in house
T1 sequence (O60674 whole entry): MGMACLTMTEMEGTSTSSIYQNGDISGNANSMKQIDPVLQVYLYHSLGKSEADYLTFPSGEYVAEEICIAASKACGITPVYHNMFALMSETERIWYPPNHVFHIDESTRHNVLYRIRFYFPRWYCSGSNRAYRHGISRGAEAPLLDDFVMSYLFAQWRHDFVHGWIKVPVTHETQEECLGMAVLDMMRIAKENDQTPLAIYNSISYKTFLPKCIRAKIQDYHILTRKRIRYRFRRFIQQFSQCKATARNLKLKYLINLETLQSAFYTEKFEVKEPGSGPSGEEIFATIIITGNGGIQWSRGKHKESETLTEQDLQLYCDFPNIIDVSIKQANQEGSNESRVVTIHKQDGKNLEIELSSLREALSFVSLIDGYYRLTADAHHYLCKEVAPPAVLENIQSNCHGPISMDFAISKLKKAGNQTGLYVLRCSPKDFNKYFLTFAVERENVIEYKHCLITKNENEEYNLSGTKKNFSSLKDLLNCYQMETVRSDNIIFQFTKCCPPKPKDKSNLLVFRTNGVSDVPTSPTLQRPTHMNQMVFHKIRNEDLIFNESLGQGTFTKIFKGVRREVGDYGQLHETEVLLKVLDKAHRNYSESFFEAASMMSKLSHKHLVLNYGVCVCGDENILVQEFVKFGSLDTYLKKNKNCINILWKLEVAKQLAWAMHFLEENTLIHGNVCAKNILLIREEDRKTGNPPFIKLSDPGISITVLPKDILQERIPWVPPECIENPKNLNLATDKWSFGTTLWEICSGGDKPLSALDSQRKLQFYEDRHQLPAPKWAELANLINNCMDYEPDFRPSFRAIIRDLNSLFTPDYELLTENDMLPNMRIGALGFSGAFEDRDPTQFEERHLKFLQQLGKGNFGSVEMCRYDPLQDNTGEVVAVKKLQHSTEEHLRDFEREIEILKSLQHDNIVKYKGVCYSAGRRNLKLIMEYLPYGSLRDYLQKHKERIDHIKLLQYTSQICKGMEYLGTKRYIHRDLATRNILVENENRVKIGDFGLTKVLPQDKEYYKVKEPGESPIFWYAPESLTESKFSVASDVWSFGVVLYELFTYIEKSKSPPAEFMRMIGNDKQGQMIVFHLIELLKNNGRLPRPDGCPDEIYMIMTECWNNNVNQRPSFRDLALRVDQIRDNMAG
Text: (§2) Competition Binding Assay to Determine Binding Constants (Kd) of the Compounds Against JAK Kinases
as §1

JAK3 = molecular target: T2, JAK3 (Homo sapiens, UniProt P52333); experiment: Competition binding assay, JAK3
T2 construct: made in house
T2 sequence (P52333 1-1124): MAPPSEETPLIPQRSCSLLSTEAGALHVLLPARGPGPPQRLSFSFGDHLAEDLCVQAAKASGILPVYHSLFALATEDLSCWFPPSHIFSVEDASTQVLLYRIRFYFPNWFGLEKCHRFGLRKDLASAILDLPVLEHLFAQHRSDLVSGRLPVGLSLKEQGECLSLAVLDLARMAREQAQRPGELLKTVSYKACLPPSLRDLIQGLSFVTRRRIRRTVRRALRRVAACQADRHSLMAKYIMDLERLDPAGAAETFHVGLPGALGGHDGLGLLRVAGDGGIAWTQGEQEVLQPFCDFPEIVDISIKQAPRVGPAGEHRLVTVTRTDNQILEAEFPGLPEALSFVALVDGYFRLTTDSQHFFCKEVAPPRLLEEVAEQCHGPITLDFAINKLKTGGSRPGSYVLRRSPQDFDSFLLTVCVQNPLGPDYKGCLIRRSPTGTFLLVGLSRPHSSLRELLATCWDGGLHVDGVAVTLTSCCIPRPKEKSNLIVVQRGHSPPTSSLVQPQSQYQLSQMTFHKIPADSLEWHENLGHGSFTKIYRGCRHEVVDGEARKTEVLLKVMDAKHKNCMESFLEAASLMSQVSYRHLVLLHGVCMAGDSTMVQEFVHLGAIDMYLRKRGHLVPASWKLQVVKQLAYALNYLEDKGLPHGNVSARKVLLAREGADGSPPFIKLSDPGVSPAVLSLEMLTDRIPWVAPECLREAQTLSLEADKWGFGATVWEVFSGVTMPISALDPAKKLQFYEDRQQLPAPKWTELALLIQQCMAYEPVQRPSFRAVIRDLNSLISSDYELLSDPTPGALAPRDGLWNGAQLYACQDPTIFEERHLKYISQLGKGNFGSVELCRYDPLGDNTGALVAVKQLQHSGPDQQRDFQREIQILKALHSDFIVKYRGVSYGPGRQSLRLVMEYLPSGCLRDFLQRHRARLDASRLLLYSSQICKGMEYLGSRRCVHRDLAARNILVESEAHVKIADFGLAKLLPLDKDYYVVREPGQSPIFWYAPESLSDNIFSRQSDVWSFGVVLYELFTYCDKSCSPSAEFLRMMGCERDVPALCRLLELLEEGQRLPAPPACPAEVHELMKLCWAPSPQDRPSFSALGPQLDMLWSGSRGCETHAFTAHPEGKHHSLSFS
Text: as §2, §1

TYK2 = molecular target: T3, TYK2 (Homo sapiens, UniProt P29597); experiment: Competition binding assay, TYK2
T3 construct: made in house
T3 sequence (P29597 whole entry): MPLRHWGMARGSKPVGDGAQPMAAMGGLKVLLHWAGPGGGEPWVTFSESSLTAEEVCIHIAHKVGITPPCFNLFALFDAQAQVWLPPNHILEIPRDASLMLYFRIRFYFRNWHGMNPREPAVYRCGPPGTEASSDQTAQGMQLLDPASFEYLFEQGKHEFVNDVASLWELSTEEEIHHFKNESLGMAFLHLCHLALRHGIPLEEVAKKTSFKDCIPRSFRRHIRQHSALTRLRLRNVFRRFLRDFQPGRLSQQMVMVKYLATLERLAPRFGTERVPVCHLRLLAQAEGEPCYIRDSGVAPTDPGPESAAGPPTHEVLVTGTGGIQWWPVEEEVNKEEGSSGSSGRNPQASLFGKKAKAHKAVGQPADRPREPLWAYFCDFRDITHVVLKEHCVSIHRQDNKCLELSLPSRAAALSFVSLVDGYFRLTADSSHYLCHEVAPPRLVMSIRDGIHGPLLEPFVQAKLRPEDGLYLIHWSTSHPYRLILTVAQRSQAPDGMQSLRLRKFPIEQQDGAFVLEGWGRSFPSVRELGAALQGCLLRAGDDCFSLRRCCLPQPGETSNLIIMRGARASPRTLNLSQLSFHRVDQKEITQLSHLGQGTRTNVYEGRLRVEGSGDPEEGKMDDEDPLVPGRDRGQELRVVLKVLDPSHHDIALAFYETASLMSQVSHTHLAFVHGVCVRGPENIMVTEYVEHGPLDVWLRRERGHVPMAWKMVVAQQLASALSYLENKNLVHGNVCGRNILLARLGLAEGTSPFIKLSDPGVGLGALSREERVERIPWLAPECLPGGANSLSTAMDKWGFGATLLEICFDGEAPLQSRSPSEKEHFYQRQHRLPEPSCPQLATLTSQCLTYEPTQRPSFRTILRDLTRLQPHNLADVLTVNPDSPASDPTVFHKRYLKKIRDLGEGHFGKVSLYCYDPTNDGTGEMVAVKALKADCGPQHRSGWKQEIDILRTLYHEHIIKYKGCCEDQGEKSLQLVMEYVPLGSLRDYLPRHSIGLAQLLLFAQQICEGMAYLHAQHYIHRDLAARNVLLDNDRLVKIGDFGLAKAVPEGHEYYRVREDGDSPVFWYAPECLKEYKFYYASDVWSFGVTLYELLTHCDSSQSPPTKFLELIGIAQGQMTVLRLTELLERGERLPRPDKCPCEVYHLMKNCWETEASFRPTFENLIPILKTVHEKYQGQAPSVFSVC
Text: as §2, §1

Row | SMILES | S-Score: S(10) at 10 μM [1] | IC50 [2] | Kd (JAK2) | Kd (JAK3) | Kd (TYK2)
1 | Cc1cc(Nc2nc(C(F)(F)c3ccc(F)cc3)nc3sccc23)n[nH]1 [Example 1, 2-(difluoro(4-fluorophenyl)methyl)-N-(5-methyl-1H-pyrazol-3-yl)thieno[2,3-d]pyrimidin-4-amine] | B (0.3 < B ≦ 0.4) | ≤ 0.1 µM | ≤ 0.001 µM | ≤ 0.01 µM | ≤ 0.01 µM
2 | Cc1cc(Nc2nc(C(=O)c3ccc(F)cc3)nc3c(C)csc23)n[nH]1 [Example 22, (4-fluorophenyl)(7-methyl-4-(5-methyl-1H-pyrazol-3-ylamino)thieno[3,2-d]pyrimidin-2-yl)methanone] | A (A ≦ 0.3) | 0.1 to 0.5 µM | 0.001 to 0.01 µM | > 0.1 µM | > 0.1 µM
3 | Cc1cc(Nc2nc(C(O)c3ccc(F)cc3)nc3c(C)csc23)n[nH]1 (centres unmarked) [Example 23, (4-fluorophenyl)(7-methyl-4-(5-methyl-1H-pyrazol-3-ylamino)thieno[3,2-d]pyrimidin-2-yl)methanol] | A (A ≦ 0.3) | 0.1 to 0.5 µM | ≤ 0.001 µM | 0.01 to 0.1 µM | ≤ 0.01 µM
4 | Cc1cc(Nc2nc(C(F)(F)c3ccc(F)cn3)nc3ccsc23)n[nH]1 [Example 33, 2-(difluoro(5-fluoropyridin-2-yl)methyl)-N-(5-methyl-1H-pyrazol-3-yl)thieno[3,2-d]pyrimidin-4-amine] | C (0.4 < C ≦ 0.5) | ≤ 0.1 µM | ≤ 0.001 µM | ≤ 0.01 µM | ≤ 0.01 µM
